From patent US7816408B2, “Calcium receptor active compounds” (NPS Pharmaceuticals, Inc., priority 2002, dated 2010) come the findings set out here.

One assay concerns the target T1, human calcium receptor (Homo sapiens, UniProt P41180).
T1 construct: expressed in transfected cells; host or cells: HEK293
T1 sequence (P41180 20-1078): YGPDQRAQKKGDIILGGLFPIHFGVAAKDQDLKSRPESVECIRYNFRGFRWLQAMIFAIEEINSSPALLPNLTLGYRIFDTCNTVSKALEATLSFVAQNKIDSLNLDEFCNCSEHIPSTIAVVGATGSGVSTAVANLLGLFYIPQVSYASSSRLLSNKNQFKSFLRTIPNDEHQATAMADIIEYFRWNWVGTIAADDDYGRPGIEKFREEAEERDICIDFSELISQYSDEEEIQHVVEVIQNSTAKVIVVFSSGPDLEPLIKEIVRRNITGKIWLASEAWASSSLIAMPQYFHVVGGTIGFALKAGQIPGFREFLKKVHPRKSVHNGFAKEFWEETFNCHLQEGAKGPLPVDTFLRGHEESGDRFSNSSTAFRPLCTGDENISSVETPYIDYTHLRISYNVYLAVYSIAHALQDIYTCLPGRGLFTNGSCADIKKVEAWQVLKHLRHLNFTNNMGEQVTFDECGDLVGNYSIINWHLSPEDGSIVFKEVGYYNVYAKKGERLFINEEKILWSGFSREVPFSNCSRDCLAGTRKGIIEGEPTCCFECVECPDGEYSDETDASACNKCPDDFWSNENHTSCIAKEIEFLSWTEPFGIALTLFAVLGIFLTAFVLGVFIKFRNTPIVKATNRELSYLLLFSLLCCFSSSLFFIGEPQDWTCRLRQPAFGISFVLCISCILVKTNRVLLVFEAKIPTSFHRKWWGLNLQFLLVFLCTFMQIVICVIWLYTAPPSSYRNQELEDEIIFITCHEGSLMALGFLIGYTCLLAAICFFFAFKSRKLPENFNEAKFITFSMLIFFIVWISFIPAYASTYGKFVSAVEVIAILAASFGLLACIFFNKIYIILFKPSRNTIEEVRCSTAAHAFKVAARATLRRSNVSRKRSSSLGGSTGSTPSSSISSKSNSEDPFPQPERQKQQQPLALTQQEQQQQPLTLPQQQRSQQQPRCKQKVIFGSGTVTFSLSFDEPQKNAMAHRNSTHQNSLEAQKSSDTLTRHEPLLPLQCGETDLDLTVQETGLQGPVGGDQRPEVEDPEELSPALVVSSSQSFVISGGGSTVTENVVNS
As to the kind of experiment: Activity on calcium receptors: fluo-3 fluorescence in HEK293 cells transfected with human calcium receptor gene. Type of assay: cell-based. The following applies: HEK293 cells transfected with plasmid pHuPCaR4.0 (human calcium receptor gene), loaded with fluo-3; 1 mM CaCl2, 1 mM MgCl2. In outline:
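HEK293 cells transfected with human calcium receptor plasmid, loaded 1 h at 37 °C with about 5 μM fluo-3/AM. Cells then rinsed into HEPES-buffered HBSS with 1 mM CaCl2 and 1 mM MgCl2. Fluorescence read at 485/540 nm after compound addition.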

A further assay concerns normal male SD rats. As to the kind of experiment: Plasma Ca^2+ level of rats after single oral administration. Format: in vivo. The conditions noted are these: rat, mean of six animals; for Plasma Ca^2+ (mmol/l) 1 hr: 1 hr after single oral dose 30 μmol/kg; for Plasma Ca^2+ (mmol/l) 1 hr / Plasma Ca^2+ (mmol/l) 2 hr / Plasma Ca^2+ (mmol/l) 4 hr / Plasma Ca^2+ (mmol/l) 8 hr / Plasma Ca^2+ (mmol/l) 24 hr / Plasma Ca^2+ (mmol/l) 0 hr / Plasma Ca^2+ (mmol/l) 27 hr (footnote *b, 24 hr): vehicle 10% cyclodextrin (** 1% sodium-CMC); for Plasma Ca^2+ (mmol/l) 2 hr: 2 hr after single oral dose 30 μmol/kg; for Plasma Ca^2+ (mmol/l) 4 hr: 4 hr after single oral dose 30 μmol/kg; for Plasma Ca^2+ (mmol/l) 8 hr: 8 hr after single oral dose 30 μmol/kg; for Plasma Ca^2+ (mmol/l) 24 hr: 24 hr after single oral dose 30 μmol/kg; for Plasma Ca^2+ (mmol/l) 0 hr: 0 hr = before oral administration of 30 μmol/kg; for Plasma Ca^2+ (mmol/l) 27 hr (footnote *b, 24 hr): 27 hr after single oral dose 30 μmol/kg. As to the method: The compound of the present invention was administered to rats so as to examine the effects of the compound on the plasma calcium ion level and serum PTH level. The test was performed by orally administering single dose of the compound of the invention or a control compound to normal male SD rats with six animals in each group.
To the group 1 was administered as a control a 10% cyclodextrin aqueous solution in a dose of 2.5 ml/kg. To the group 2 was administered as a reference (R)-N-(3-(2-chlorophenyl)propyl)-1-(3-methoxyphenyl)ethylamine (KRN568) dissolved in a 10% cyclodextrin aqueous solution in a dose of 30 μmol/kg. To the group 3 was administered the compound of the present invention dissolved in a 10% cyclodextrin aqueous solution in a dose of 30 μmol/kg, provided that 1% sodium-CMC aqueous solution was used in place of 10% cyclodextrin aqueous solution for the compounds marked with ** in Table 2.
Blood of each rat was collected from the tail tip before the administration and 30 minutes and 1, 2, 4, 8 and 24 hours thereafter (or at the time indicated in Table 2), and the plasma Ca^2+ level and serum PTH level were measured. The data of the serum PTH level were statistically processed by the multiple comparison analysis in accordance with Steel's calibration by using the group 1 as the control.

SMILES strings stand for the structures.

With `C[C@@H](NCCC(=O)N(Cc1ccc(C(F)(F)F)cc1)Cc1ccc(Cl)c(Cl)c1)c1cccc2ccccc12` [Compound K-2264, N1-(3,4-dichlorobenzyl)-N1-[(4-trifluoromethyl)benzyl]-3-{[(1R)-1-(1-naphthyl)ethyl]-amino}propanamide], the EC50 on human calcium receptor amounted to 16 nM. Also, in the assay with normal male SD rats, the “Plasma Ca^2+ (mmol/l) 1 hr” value was 1.335 mmol/L, the “Plasma Ca^2+ (mmol/l) 2 hr” value stood at 1.203 mmol/L, the “Plasma Ca^2+ (mmol/l) 4 hr” value was found to be 1.013 mmol/L and the “Plasma Ca^2+ (mmol/l) 8 hr” value was 0.998 mmol/L. In addition, the “Plasma Ca^2+ (mmol/l) 24 hr” value in the assay on normal male SD rats came to 1.182 mmol/L. The “Plasma Ca^2+ (mmol/l) 31 hr (footnote *a, 48 hr column)” value in the assay on normal male SD rats (31 hr after single oral dose 30 μmol/kg, 1% sodium-CMC) is 1.240*^a mmol/l.
Take `C[C@@H](NCCC(=O)N(Cc1ccc(Cl)c(Cl)c1)Cc1ccc(Cl)c(Cl)c1)c1cccc2ccccc12` [Compound K-2265, N1,N1-di(3,4-dichlorobenzyl)-3-{[(1R)-1-(1-naphthyl)ethyl]amino}propanamide]: on human calcium receptor, the EC50 turned out to be 61 nM. In the assay with normal male SD rats, the “Plasma Ca^2+ (mmol/l) 1 hr” value turned out to be 1.430 mmol/L, the “Plasma Ca^2+ (mmol/l) 2 hr” value turned out to be 1.363 mmol/L, the “Plasma Ca^2+ (mmol/l) 4 hr” value was 1.260 mmol/L and the “Plasma Ca^2+ (mmol/l) 8 hr” value was determined as 1.218 mmol/L.
On to `C[C@@H](NCCC(=O)N(Cc1ccc(Cl)cc1)Cc1ccc(C(F)(F)F)cc1)c1cccc2ccccc12` [Compound K-2266, N1-(4-chlorobenzyl)-N1-[(4-trifluoromethyl)benzyl]-3-{[(1R)-1-(1-naphthyl)ethyl]amino}propanamide], for which the EC50 at human calcium receptor stood at 36 nM. Also, in the assay with normal male SD rats, the “Plasma Ca^2+ (mmol/l) 0 hr” value was 1.417 mmol/L, the “Plasma Ca^2+ (mmol/l) 1 hr” value turned out to be 1.368 mmol/L, the “Plasma Ca^2+ (mmol/l) 2 hr” value turned out to be 1.222 mmol/L and the “Plasma Ca^2+ (mmol/l) 4 hr” value stood at 1.065 mmol/L. Further, in the assay on normal male SD rats, the “Plasma Ca^2+ (mmol/l) 8 hr” value is 1.045 mmol/L and the “Plasma Ca^2+ (mmol/l) 24 hr” value is 1.370 mmol/L.
As to `C[C@@H](NCCC(=O)N(Cc1ccc(Cl)cc1)Cc1ccc(Cl)c(Cl)c1)c1cccc2ccccc12` [Compound K-2267, N1-(4-chlorobenzyl)-N1-(3,4-dichlorobenzyl)-3-{[(1R)-1-(1-naphthyl)ethyl]amino}propanamide], the EC50 at human calcium receptor is 14 nM. Moreover, in the assay on normal male SD rats, the “Plasma Ca^2+ (mmol/l) 1 hr” value is 1.347 mmol/L, the “Plasma Ca^2+ (mmol/l) 2 hr” value is 1.212 mmol/L, the “Plasma Ca^2+ (mmol/l) 4 hr” value was found to be 1.027 mmol/L and the “Plasma Ca^2+ (mmol/l) 8 hr” value turned out to be 1.022 mmol/L. In addition, the “Plasma Ca^2+ (mmol/l) 24 hr” value with normal male SD rats came out at 1.312 mmol/L.
Turning to `COc1cccc(SCCCCN[C@H](C)c2cccc3ccccc23)c1` [Compound K-2269, N-{4-[(3-methoxyphenyl)thio]butyl}-N-[(1R)-1-(1-naphthyl)ethyl]amine], the EC50 at human calcium receptor was determined as 71 nM. Also, in the assay on normal male SD rats, the “Plasma Ca^2+ (mmol/l) 1 hr” value turned out to be 1.152 mmol/L, the “Plasma Ca^2+ (mmol/l) 2 hr” value amounted to 1.140 mmol/L, the “Plasma Ca^2+ (mmol/l) 4 hr” value worked out at 1.097 mmol/L and the “Plasma Ca^2+ (mmol/l) 8 hr” value amounted to 1.173 mmol/L.
On the same counts, the results for `COc1ccc(CN(Cc2ccc(OC)cc2)C(=O)CCN[C@H](C)c2cccc3ccccc23)cc1` [Compound K-2270, N1,N1-di(4-methoxybenzyl)-3-{[(1R)-1-(1-naphthyl)ethyl]amino}propanamide] are 140 nM, 1.355 mmol/L, 1.238 mmol/L, 1.088 mmol/L and 1.175 mmol/L.
Turning to `CCOc1ccc2sc(SCCCCN[C@H](C)c3cccc4ccccc34)nc2c1` [Compound K-2271], on human calcium receptor, the EC50 was found to be 140 nM. In the assay with normal male SD rats, the “Plasma Ca^2+ (mmol/l) 0 hr” value was determined as 1.428 mmol/L, the “Plasma Ca^2+ (mmol/l) 1 hr” value came out at 1.278 mmol/L, the “Plasma Ca^2+ (mmol/l) 2 hr” value was 1.227 mmol/L and the “Plasma Ca^2+ (mmol/l) 4 hr” value amounted to 1.128 mmol/L. Besides, in the assay on normal male SD rats, the “Plasma Ca^2+ (mmol/l) 8 hr” value worked out at 1.197 mmol/L.
For `C[C@@H](NCCC(=O)N(Cc1ccc(OC(F)(F)F)cc1)Cc1ccc(Cl)c(Cl)c1)c1cccc2ccccc12` [Compound K-2272, N1-(3,4-dichlorobenzyl)-N1-[4-(trifluoromethoxy)benzyl)-3-{[(1R)-1-(1-naphthyl)ethyl]-amino}propanamide], at human calcium receptor, the EC50 is 52 nM. Moreover, in the assay with normal male SD rats, the “Plasma Ca^2+ (mmol/l) 1 hr” value stood at 1.382 mmol/L, the “Plasma Ca^2+ (mmol/l) 2 hr” value worked out at 1.237 mmol/L, the “Plasma Ca^2+ (mmol/l) 4 hr” value is 1.075 mmol/L and the “Plasma Ca^2+ (mmol/l) 8 hr” value was found to be 1.022 mmol/L. In addition, in the assay with normal male SD rats, the “Plasma Ca^2+ (mmol/l) 24 hr” value was 1.240 mmol/L.
Take `COc1cccc(SCCCCCN[C@H](C)c2cccc3ccccc23)c1` [Compound K-2279, N-{[5-(3-methoxyphenyl)thio]pentyl}N-[(1R)-1-(1-naphthyl)ethyl]amine]: on human calcium receptor, the EC50 was found to be 630 nM. For the same compound, in the assay with normal male SD rats, the “Plasma Ca^2+ (mmol/l) 0 hr” value is 1.443 mmol/L, the “Plasma Ca^2+ (mmol/l) 1 hr” value came out at 1.200 mmol/L, the “Plasma Ca^2+ (mmol/l) 2 hr” value was found to be 1.155 mmol/L and the “Plasma Ca^2+ (mmol/l) 4 hr” value was found to be 1.130 mmol/L. In the assay with normal male SD rats, the “Plasma Ca^2+ (mmol/l) 8 hr” value was found to be 1.210 mmol/L and the “Plasma Ca^2+ (mmol/l) 24 hr” value worked out at 1.445 mmol/L.
As for `COc1ccc(SCCCCCN[C@H](C)c2cccc3ccccc23)cc1` [Compound K-2280], the EC50 on human calcium receptor was found to be 270 nM. In the assay with normal male SD rats, the “Plasma Ca^2+ (mmol/l) 0 hr” value is 1.443 mmol/L, the “Plasma Ca^2+ (mmol/l) 1 hr” value was determined as 1.233 mmol/L, the “Plasma Ca^2+ (mmol/l) 2 hr” value came to 1.167 mmol/L and the “Plasma Ca^2+ (mmol/l) 4 hr” value was determined as 1.077 mmol/L. In the assay on normal male SD rats, the “Plasma Ca^2+ (mmol/l) 8 hr” value worked out at 1.142 mmol/L and the “Plasma Ca^2+ (mmol/l) 24 hr” value came to 1.405 mmol/L.
With `C[C@@H](NCCCCSc1cc(Cl)c(Cl)cc1Cl)c1cccc2ccccc12` [Compound K-2281, N-[(1R)-1-(1-naphthyl)ethyl]-N-{4-[(2,4,5-trichlorophenyl)thio]butyl}amine], at human calcium receptor, the EC50 amounted to 430 nM. In the assay with normal male SD rats, the “Plasma Ca^2+ (mmol/l) 1 hr” value came out at 1.380 mmol/L, the “Plasma Ca^2+ (mmol/l) 2 hr” value worked out at 1.245 mmol/L, the “Plasma Ca^2+ (mmol/l) 4 hr” value came to 1.103 mmol/L and the “Plasma Ca^2+ (mmol/l) 8 hr” value is 0.993 mmol/L. Further, in the assay with normal male SD rats, the “Plasma Ca^2+ (mmol/l) 27 hr (footnote *b, 24 hr)” value is 1.230*^b mmol/l.
For `C[C@@H](NCCCCCSc1cc(Cl)c(Cl)cc1Cl)c1cccc2ccccc12` [Compound K-2282, N-[(1R)-1-(1-naphthyl)ethyl]-N-{5-[(2,4,5-trichlorophenyl)thio]pentyl}amine], the EC50 at human calcium receptor turned out to be 340 nM. In the assay with normal male SD rats, the “Plasma Ca^2+ (mmol/l) 1 hr” value was 1.425 mmol/L, the “Plasma Ca^2+ (mmol/l) 2 hr” value is 1.298 mmol/L, the “Plasma Ca^2+ (mmol/l) 4 hr” value is 1.168 mmol/L and the “Plasma Ca^2+ (mmol/l) 8 hr” value amounted to 1.078 mmol/L. In the assay on normal male SD rats, the “Plasma Ca^2+ (mmol/l) 27 hr (footnote *b, 24 hr)” value is reported as 1.230*^b mmol/l.
